# What was measured:
# [1] = Aqueous solubility; assay type: physicochemical
# [2] = target: Galectin-1 (Homo sapiens, UniProt P09382); assay: Fluorescence anisotropy assay, inhibition of galectin / fluorescein tagged saccharide probe interaction; assay type: binding
# Description: (§1) The affinity of Example 1-28 for galectins were determined by a fluorescence anisotropy assay where the compound was used as an inhibitor of the interaction between galectin and a fluorescein tagged saccharide probe as described Sörme, P., Kahl-Knutsson, B., Huflejt, M., Nilsson, U. J., and Leffler H. (2004) Fluorescence polarization as an analytical tool to evaluate galectin-ligand interactions. Anal. Biochem. 334: 36-47, (Sörme et al., 2004) and Monovalent interactions of Galectin-1 By Salomonsson, Emma; Larumbe, Amaia; Tejler, Johan; Tullberg, Erik; Rydberg, Hanna; Sundin, Anders; Khabut, Areej; Frejd, Torbjorn; Lobsanov, Yuri D.; Rini, James M.; et al, From Biochemistry (2010), 49(44), 9518-9532, (Salomonsson et al., 2010).
# [3] = target: Galectin-3 (Homo sapiens, UniProt P17931); assay: as above; assay type: binding
# Description: as §1
# [4] = tested on: galectins; settings: cited from earlier work
# Galectin-1, sequence (P09382 whole entry): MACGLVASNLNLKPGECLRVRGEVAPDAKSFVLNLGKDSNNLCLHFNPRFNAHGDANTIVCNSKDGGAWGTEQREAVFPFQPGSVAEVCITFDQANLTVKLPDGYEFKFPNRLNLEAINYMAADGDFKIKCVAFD
# Galectin-3, sequence (P17931 whole entry): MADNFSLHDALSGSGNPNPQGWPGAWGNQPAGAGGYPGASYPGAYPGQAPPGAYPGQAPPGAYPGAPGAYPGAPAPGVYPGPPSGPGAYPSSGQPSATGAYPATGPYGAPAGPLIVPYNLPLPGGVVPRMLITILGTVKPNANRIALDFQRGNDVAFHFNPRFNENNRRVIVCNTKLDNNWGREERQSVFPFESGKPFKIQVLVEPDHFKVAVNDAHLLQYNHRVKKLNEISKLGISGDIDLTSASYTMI
SMILES,solubility [1],Kd [2],Kd [3],"affinity, times lower than lactose ([4]; relative to lactose)",Kd ([4]; all galectins)
"CS(=O)(=O)NC(=O)COC1C(n2cc(-c3cc(F)c(Cl)c(F)c3)nn2)[C@@H](O)C(CO)O[C@@H]1Sc1ccc(Cl)c(Cl)c1 (stereo in doubt) [Example 9, 3,4-Dichlorphenyl 3-[4-(4-chloro-3,5-difluorophenyl)-1H-1,2,3-triazol-1-yl]-3-deoxy-2-O-[2-(methylsulfonamido)-2-oxoethyl]-1-thio-α-D-galactopyranoside]",2900 µg/mL,3 µM,0.023 µM,–,–
O=C[C@H](O)[C@@H](O)[C@@H](O)[C@H](O)CO [D-galactose],–,–,–,50-100 times,–
"O=P(O)(O)OCO[C@@H]1[C@@H](n2cc(-c3cc(F)c(F)c(F)c3)nn2)[C@@H](O)[C@@H](CO)O[C@@H]1Sc1cncc(Br)c1 [Example 5, 5-Bromopyridin-3-yl 3-deoxy-3-[4-(3,4,5-trifluorophenyl)-1H-1,2,3-triazol-1-yl]-2-O-[(phosphonooxy)methyl]-1-thio-α-D-galactopyranoside]",> 10000 µg/mL,3.83 µM,0.012 µM,–,–
"O=C(O)CO[C@@H]1[C@@H](n2cc(-c3cc(F)c(Cl)c(F)c3)nn2)[C@@H](O)[C@@H](CO)O[C@@H]1Sc1ccc(Cl)c(Cl)c1 [Example 7, 3,4-Dichlorphenyl 2-O-carboxymethyl-3-[4-(4-chloro-3,5-difluorophenyl)-1H-1,2,3-triazol-1-yl]-3-deoxy-1-thio-α-D-galactopyranoside]",2000 µg/mL,2 µM,0.0085 µM,–,–
"CN(C)C(=O)c1ccc(Cl)cc1S[C@H]1OC(CO)[C@H](O)C(n2cc(-c3cc(F)c(F)c(F)c3)nn2)C1OCc1cscn1 (stereo partly drawn) [Example 24, 4-Chloro-N,N-dimethyl-benzamide-2-yl 3-deoxy-3-[4-(3,4,5-trifluorophenyl)-1H-1,2,3-triazol-1-yl]-2-O-[(thiazol-4-yl)methyl]-1-thio-α-D-galactopyranoside]",–,3.7 µM,0.014 µM,–,–
OC[C@H]1O[C@@H](O[C@H]2[C@H](O)[C@@H](O)C(O)O[C@@H]2CO)[C@H](O)[C@@H](O)[C@H]1O (some centres unmarked) [lactose],–,–,–,–,500 to 1000 µM

# More lines, main results first:
solubility [1],Kd [2],Kd [3],SMILES,"affinity, times lower than lactose ([4]; relative to lactose)",Kd ([4]; all galectins)
1800 µg/mL,1.8 µM,0.007 µM,"O=C(O)CO[C@@H]1[C@@H](n2cc(-c3cc(F)c(F)c(F)c3)nn2)[C@@H](O)[C@@H](CO)O[C@@H]1Sc1cncc(Br)c1 [Example 8, 5-Bromopyridin-3-yl 2-O-carboxymethyl-3-deoxy-3-[4-(3,4,5-trifluorophenyl)-1H-1,2,3-triazol-1-yl]-1-thio-α-D-galactopyranoside]",–,–
–,1.2 µM,0.004 µM,"CN(C)C(=O)c1ccc(Cl)cc1S[C@H]1OC(CO)[C@H](O)C(n2cc(-c3cc(F)c(F)c(F)c3)nn2)C1OCc1nnn[nH]1 (stereo partly drawn) [Example 25, 4-Chloro-N,N-dimethyl-benzamide-2-yl 3-deoxy-3-[4-(3,4,5-trifluorophenyl)-1H-1,2,3-triazol-1-yl]-2-O-[(1H-tetrazol-5-yl)methyl]-1-thio-α-D-galactopyranoside]",–,–
–,1.5 µM,0.01 µM,"O=C(O)CCCO[C@@H]1[C@@H](n2cc(-c3cc(F)c(F)c(F)c3)nn2)[C@@H](O)[C@@H](CO)O[C@@H]1Sc1cncc(Br)c1 [Example 26, 5-Bromopyridin-3-yl 2-O-carboxypropyl-3-deoxy-3-[4-(3,4,5-trifluorophenyl)-1H-1,2,3-triazol-1-yl]-1-thio-α-D-galactopyranoside]",–,–
